Measured values published in patent publication US20190209528A1, “MEDICINAL DRUG, METHOD, USE, AND COMPOUND FOR PREVENTING OR CURING LEUKEMIA ASSOCIATED WITH MLL” (FUJIFILM Corporation, priority 2016, published 2019).

What was measured:
[1] = test system: MLL fusion gene (MLL-AF9) leukemia cells; assay: Mouse acute myelogenous leukemia model with MLL fusion gene (MLL-AF9) introduced (Test Example 1); type: in vivo
Description: (§1) Hereinafter, Test examples 1 and 2 will be described. Test Example 1 and 2 were carried out with reference to J Clin Invest., 2013 Sep. 3, 123(9): 3876 to 3888; and Blood, 1 Sep. 2011, Volume 118, 2541 to 2550.
A mouse acute myelogenous leukemia (AML) model into which the MLL fusion gene (MLL-AF9) inducing cancer was introduced, was prepared. Specifically, bone marrow cells were collected from a C57BL/6-Ly5.1 mouse (Sankyo Labo Service Corporation, INC., hereinafter the same applies), and hematopoietic stem precursor cells were isolated using CD117 MicroBeads. MLL-AF9 marked with GFP (green fluorescent protein) was introduced into these cells using a virus. This MLL-AF9-introduced cells were transplanted to the same strain (C57BL/6) mouse (Japan SLC, Inc., hereinafter the same applies), and GFP-positive leukemia cells were collected from the mouse spleens that developed leukemia. These cells were subjected to second, third, and fourth transplantations, and after the fourth transplantation, MLL fusion gene (MLL-AF9) leukemia cells causing all the mice to develop leukemia in about 2 weeks were collected.
These MLL fusion gene (MLL-AF9) leukemia cells 1×10^6/mouse were injected into the C57BL/6 mouse from the tail vein. On day 4 after the day of injection, 0.5% methylcellulose suspension of 5-hydroxy-1H-imidazole-4-carboxamide-3/4 hydrate (medicine) was administered orally to the mouse once per day at 160 mg/kg (in terms of free base) on Monday (day 4), Wednesday (day 6), and Friday (day 8), and this administration was continued during the survival period of the mouse.

[2] = test system: p53-deleted MLL fusion gene (MLL-AF9) leukemia cells; assay: Mouse acute myelogenous leukemia model, MLL-AF9 leukemia cells with the p53 gene deleted (Test Example 2); type: in vivo
Description: as §1
In the case where the survival period was extended depending on the function of a p53 gene, there is a concern that clinical usefulness may be limited. For this reason, the MLL fusion gene (MLL-AF9) leukemia cells were prepared in the same manner as in Test Example 1 by using mice in which the p53 gene was deleted.

[3] = test system: leukemia associated with MLL (MLL-ENL); settings: FIG. 3 and FIG. 5 of Genes & development, Vol. 23, pp. 877 to 889, 2009; cited from earlier work

Row | Compound | longest survival in medicine-administered group (FIG. 1) ([1]; 160 mg/kg orally Mon/Wed/Fri from day 4) | survival period of medicine-administered group (FIG. 1) ([1]; 160 mg/kg orally Mon/Wed/Fri from day 4, control mice all died in about 20 days) [days] | survival period versus non-administered group ([1]; C57BL/6 mouse, 1x10^6 MLL-AF9 leukemia cells via tail vein, 160 mg/kg (free base) orally once per day Mon/Wed/Fri from day 4, log-rank test significant) | proliferation of GFP+ cells in the peripheral blood (FIG. 2) ([1]; day 10 after injection of leukemia cells, Mann-Whitney's U test significant versus control) | longest survival in medicine-administered group (FIG. 3) [2] [days] | survival period of medicine-administered group (FIG. 3) ([2]; control mice died in less than 20 days) [days] | proliferation of GFP+ cells in the peripheral blood (FIG. 4) ([2]; day 19 after injection of leukemia cells) | survival period versus non-administered group, p53-deleted leukemia cells ([2]; same manner as Test Example 1) | efficacy of existing chemotherapy in leukemia associated with MLL [3]
1 | NC(=O)c1nc[nH]c1O [5-hydroxy-1H-imidazole-4-carboxamide-3/4 hydrate] | up to 40 days | ≥ 30 | significant extension of the survival period | proliferation of GFP+ cells was suppressed | ≥ 40 | ≥ 20 | proliferation of GFP+ cells was suppressed | extension of the survival period according to the present invention does not depend on the p53 gene | –
2 | Nc1ccn([C@@H]2O[C@H](CO)[C@@H](O)[C@@H]2O)c(=O)n1 [cytarabine] | – | – | – | – | – | – | – | – | not effective
3 | COc1cccc2c1C(=O)c1c(O)c3c(c(O)c1C2=O)C[C@@](O)(C(=O)CO)C[C@@H]3O[C@H]1C[C@H](N)[C@H](O)[C@H](C)O1 [doxorubicin] | – | – | – | – | – | – | – | – | not effective
